We go through two compounds from PMC8058163 (Clinical pharmacology and therapeutics, 2020).

The inhibition is the percentage by which the read-out fell short of the control. The low end stands for little suppression, the high end for strong suppression. A word on the IC50: it is the concentration needed to halve the response being measured. Higher therefore signals lower potency.

Several values for one entry are separate records, joined by “and”; a condition that tells them apart may be missing. Identical values can stand only once.

Data set [1] has as its target T1, OATP1B3 (Homo sapiens, UniProt Q9NPD5).
T1 sequence (Q9NPD5 1-702): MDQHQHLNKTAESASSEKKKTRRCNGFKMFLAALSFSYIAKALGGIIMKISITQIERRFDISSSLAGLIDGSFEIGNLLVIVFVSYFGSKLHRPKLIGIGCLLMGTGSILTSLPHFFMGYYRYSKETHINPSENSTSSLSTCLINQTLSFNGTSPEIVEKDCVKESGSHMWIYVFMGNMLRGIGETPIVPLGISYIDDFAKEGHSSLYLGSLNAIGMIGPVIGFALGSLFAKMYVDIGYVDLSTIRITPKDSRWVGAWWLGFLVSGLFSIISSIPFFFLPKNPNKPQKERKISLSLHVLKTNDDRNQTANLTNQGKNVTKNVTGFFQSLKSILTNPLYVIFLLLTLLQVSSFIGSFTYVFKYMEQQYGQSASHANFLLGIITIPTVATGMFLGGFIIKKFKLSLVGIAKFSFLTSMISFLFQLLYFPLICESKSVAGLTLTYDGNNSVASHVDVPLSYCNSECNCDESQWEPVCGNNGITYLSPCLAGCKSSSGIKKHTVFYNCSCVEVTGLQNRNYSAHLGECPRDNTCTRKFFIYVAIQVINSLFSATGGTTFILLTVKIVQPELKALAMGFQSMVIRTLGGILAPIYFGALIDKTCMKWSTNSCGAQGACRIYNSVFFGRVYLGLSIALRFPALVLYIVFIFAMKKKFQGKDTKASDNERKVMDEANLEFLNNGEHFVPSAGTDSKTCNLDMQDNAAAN
The data set is described as follows: Transporter inhibition assay, OATP1B3. Particulars: cell line (HEK293 or MDCKII) stably expressing OATP1B3. Format: cell-based.

Data set [2] addresses MATE2-K (Homo sapiens, UniProt Q86VL8). The data set is described as follows: Transporter inhibition assay, MATE2-K. Type of data set: cell-based. The following applies: isolated alkaloids, mean [95% CI], three technical replicates.
The nature of data set [3]: Estimated berberine concentrations and parameters for the basic models. Particulars: 29.8 mg berberine in a 1-gram capsule / 250 mL.
In data set [4] the test system is all transporters tested. The data set can be described thus: Transporter inhibition assays, summary over the panel. Particulars: against all transporters tested.
In data set [5] the target is T2, OAT1 (Homo sapiens, UniProt Q4U2R8).
T2 sequence (Q4U2R8 1-563): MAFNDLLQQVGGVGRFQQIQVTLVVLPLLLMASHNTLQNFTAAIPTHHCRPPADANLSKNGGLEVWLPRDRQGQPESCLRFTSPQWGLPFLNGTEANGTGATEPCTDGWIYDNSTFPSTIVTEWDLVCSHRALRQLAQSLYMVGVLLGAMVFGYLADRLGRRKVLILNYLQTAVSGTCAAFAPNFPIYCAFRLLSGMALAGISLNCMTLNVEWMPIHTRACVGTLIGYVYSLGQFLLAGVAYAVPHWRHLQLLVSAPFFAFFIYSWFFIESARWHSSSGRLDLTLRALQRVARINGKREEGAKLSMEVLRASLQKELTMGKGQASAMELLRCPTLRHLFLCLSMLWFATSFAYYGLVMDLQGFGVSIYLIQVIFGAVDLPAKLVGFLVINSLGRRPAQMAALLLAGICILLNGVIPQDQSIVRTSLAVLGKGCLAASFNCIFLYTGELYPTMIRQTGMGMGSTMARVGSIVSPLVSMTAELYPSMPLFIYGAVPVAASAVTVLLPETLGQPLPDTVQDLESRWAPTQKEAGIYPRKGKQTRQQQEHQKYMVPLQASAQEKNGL
The data set is described as follows: Transporter inhibition assay, OAT1. Type of data set: cell-based. Particulars: cell line (HEK293 or MDCKII) stably expressing OAT1.

MATE2-K, sequence (Q86VL8 1-566 isoform Q86VL8-3): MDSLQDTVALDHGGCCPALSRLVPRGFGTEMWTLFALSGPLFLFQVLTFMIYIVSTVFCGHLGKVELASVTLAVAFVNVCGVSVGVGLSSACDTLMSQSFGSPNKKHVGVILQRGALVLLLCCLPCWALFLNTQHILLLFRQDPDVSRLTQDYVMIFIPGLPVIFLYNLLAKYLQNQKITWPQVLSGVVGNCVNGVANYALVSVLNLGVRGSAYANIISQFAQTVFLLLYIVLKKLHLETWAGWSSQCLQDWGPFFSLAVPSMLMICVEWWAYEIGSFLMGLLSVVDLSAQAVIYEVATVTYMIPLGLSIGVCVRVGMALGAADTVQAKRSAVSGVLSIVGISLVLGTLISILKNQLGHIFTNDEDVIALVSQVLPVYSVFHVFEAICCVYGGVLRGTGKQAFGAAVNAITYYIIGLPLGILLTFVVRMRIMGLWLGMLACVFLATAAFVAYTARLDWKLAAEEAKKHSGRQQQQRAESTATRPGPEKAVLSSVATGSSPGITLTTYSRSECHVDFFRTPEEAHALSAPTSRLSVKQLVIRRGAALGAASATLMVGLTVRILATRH

`COc1ccc2cc3[n+](cc2c1OC)CCc1cc2c(cc1-3)OCO2` [Berberine, berberine chloride] showed an inhibition at 100 μM in data set [1] of less than 20%. For the same compound, in data set [2], the IC50 is < 1000 nM and 770 nM. For the same compound, in data set [3], the “estimated concentration in the gut (Igut)” value is ~ 350 μM.
Regarding `CN1CCc2cc3c(cc2C1O)OCO3` (stereo not drawn) [Hydrastinine, hydrastinine chloride monohydrate], the inhibition at 100 μM in data set [1] and in data set [5] was less than 20% throughout. In addition, in data set [4], the IC50 was no less than 80000 nM.
